# Results: patent EP0326637A1, “New 2-anilinophenylacetic acid derivative” (Mikasa Seiyaku Co., Ltd., priority 1988, dated 1989)
# Where a name gives a salt, the structure may show the parent alone. Read-outs that look alike come from different tables or passages of the source.
# Key:
# [1] = tested on: carrageenin-induced hind paw edema; assay: Inhibitory effect on carrageenin-induced hind paw edema in rats; format: in vivo, rats of Wistar strain; conditions: male Wistar rats, 8 per group, oral; reference drugs at LD₅₀ amount, compound of this invention equimolar to diclofenac sodium salt; compared with Control group (P<0.01); no significant difference between the test compounds
# Excerpt: (a) Inhibitory effect on carrageenin-induced hind paw edema in rats:
# 40 Male rats of Wistar strain weighing 100-130 g were divided into the following 5 groups each consisting of 8 rats: 1. Control group, 2. Group for the administration of the compound of this invention, 3. Group for the administration of diclofenac Na, 4. Group for the administration of flurubiprofen and 5. Group for the administration of indomethacin. Prior to the administration of the test compounds, plantar injections 1% carrageenin solution were made to each rat to induce hind paw edema. To each rat of the Groups 3, 4 and 5, the LD₅₀ amount of the relevant test compound was orally administered in molar amounts. The compound of the present invention was administered in an equimolar amount to the diclofenac sodium salt.
# in vivo = conditions: mouse, in vivo, po, LD₅₀, oral administration, Litchfield-Wilcoxon's method, dead mice during one week
# Procedure: (§1) (a) Acute oral toxicity in mice:
# (§2) Groups of male and female mice of ICR strain weighing 25-35 g were used for the test, each group consisting of 6 mice. […] LD₅₀ values of the compound of this invention were calculated for each concentration according to the Litchfield-Wilcoxon's method from the number of dead mice during one week.
# mice of ICR strain = assay: in vivo; conditions: oral, male and female mice
# Procedure: as §1, §2
# [2] = tested on: male rats of Wistar strain; format: in vivo
# Procedure: (b) Gastric ulcerogenic action:
# Three groups of male rats of Wistar strain weighing 300-340 g were used, each group consisting of 7 rats; one group (Group 1) was used for control, another group (Group 2) for the administration of the compound of this invention and the other group (Group 3) for the administration of diclofenac sodium salt. After 24 hour fasting prior to the test, the compound of this invention and the diclofenac sodium salt were orally administered each in a dose of 20 mg/kg to the rats of the relevant groups. Six hours after the administration, the rats were sacrificed by decaptation and their stomachs were immediately removed. A 5% formaline solution (10 ml) was injected through the cardia into the stomach cavity and the stomach was fixed overnight in a 10% formaline solution. Each fixed stomach was cut along the greater curvature, and the inside of the stomach was investigated by the naked eye to check whether ulcers and erosions occurred or not. An ulcerogenic and erosion index was 0.71±0.42 in Group 1, 1.13±0.40 in Group 2 and 17.57±4.28 in Group 3. The number of rats having ulcers or erosions was 3/7 (42.9%) in Group 1, 4/7 (57.1%) in Group 2 and 7/7 (100%) in Group 3.
# [3] = Solubility (description of the substance); format: physicochemical; conditions: organic solvents
# [4] = tested on: female mice of ICR strain; assay: Analgesic and anti-capillary permeability effects according to Wittle's method (acetic acid stretching, PSB exudation); format: in vivo; conditions: oral 25 mg/kg, 1% acetic acid i.p., compared with control Group 3 (P<0.01), no significant difference between Groups 1 and 2; for inhibitory activities of the stretching: stretchings counted for 20 minutes; for inhibitory activities of the exudation of the colorant from the peritoneal cavity: 4% Pontamine Sky Blue i.v.
# Excerpt: (b) Analgesic and anti-capillary permeability effects according to Wittle's method:
# Three groups of female mice of ICR strain weighing 22-28 g were used, each group consisting of 10 mice; one group (Group 1) was used for the administration of the compound of this invention, another group (Group 2) for the administration of diclofenac sodium salt and the other group (Group 3) as control. […] Immediately after the intraperitoneal injection, the number of stretchings of the treated mice were counted and recorded for 20 minutes. After this observation, the mice were immediately sacrificed by dislocation of cervical vertebrae and subjected to ventrotomy. The peritoneal cavity of each mouse was washed with 5 ml of distilled water to exudate PSB in the peritoneal cavity, and the amount of the colorant exudated was measured.
SMILES,swelling of the edema [1],LD50 at 168 h (in vivo; female mice) [mg/kg],LD50 at 168 h (in vivo; male mice) [mg/kg],LD₅₀ values relative to those of diclofenac sodium salt (mice of ICR strain),"number of rats having ulcers or erosions ([2]; rat, in vivo, po, 20 mg/kg)","ulcerogenic and erosion index ([2]; rat, in vivo, po, 20 mg/kg)",solubility [3],inhibitory activities of the stretching [4],inhibitory activities of the exudation of the colorant from the peritoneal cavity [4],"ulcerogenic and erosion index ([2]; male Wistar rats, 7 per group, 24 hour fasting, oral 20 mg/kg, six hours after administration)"
"Cc1oc(=O)oc1COC(=O)Cc1ccccc1Nc1c(Cl)cccc1Cl [compound of this invention, (5-methyl-2-oxo-1,3-dioxolen-4-yl)methyl 2-(2,6-dichloroanilino)phenylacetate]",significantly inhibited,516,460,approximately 3 times,4/7 (57.1%),1.13±0.40,soluble in organic solvents such as alcohols,significant difference,significant difference,–
"O=C(O)Cc1ccccc1Nc1c(Cl)cccc1Cl [diclofenac sodium salt, reference compound]",significantly inhibited,–,–,–,–,–,–,significant difference,significant difference,17.57±4.28
CC(C(=O)O)c1ccc(-c2ccccc2)c(F)c1 (stereo not drawn) [flurubiprofen],significantly inhibited,–,–,–,–,–,–,–,–,–
COc1ccc2c(c1)c(CC(=O)O)c(C)n2C(=O)c1ccc(Cl)cc1 [indomethacin],significantly inhibited,–,–,–,–,–,–,–,–,–
